Data taken from the NIST ThermoML archive (doi:10.1021/je060189f).

Experiment: mn = molality of the nth substance listed, in mol/kg
Conditions: 101 kPa, Liquid

O=C(O)CCCCC(=O)O [1,6-hexanedioic acid] + O
Conditions	mass density [kg/m3]	viscosity [mPa·s]
293.15 K, m1 = 0.00708	998.48	1.006
293.15 K, m1 = 0.01399	998.72	1.008
293.15 K, m1 = 0.02122	999.01	1.01
293.15 K, m1 = 0.02857	999.2	1.014
293.15 K, m1 = 0.05669	1000.16	1.023
293.15 K, m1 = 0.08401	1000.95	1.035
293.15 K, m1 = 0.1125	1001.81	1.047
293.15 K, m1 = 0.143	1002.78	1.06
298.15 K, m1 = 0.01287	997.49	–
298.15 K, m1 = 0.0154	997.52	0.8959
298.15 K, m1 = 0.0257	997.83	0.8985
298.15 K, m1 = 0.02702	997.91	–
298.15 K, m1 = 0.03133	998.11	0.9017
298.15 K, m1 = 0.03789	998.27	0.9028
298.15 K, m1 = 0.04282	998.42	–
298.15 K, m1 = 0.0455	–	0.905
298.15 K, m1 = 0.05256	–	0.9074
298.15 K, m1 = 0.05544	998.81	–
298.15 K, m1 = 0.05776	–	0.9102
298.15 K, m1 = 0.06453	–	0.9122
298.15 K, m1 = 0.06825	999.2	–
298.15 K, m1 = 0.06989	999.21	0.9136
298.15 K, m1 = 0.08417	999.71	–
298.15 K, m1 = 0.08956	–	0.9197
298.15 K, m1 = 0.09767	1000.15	–
298.15 K, m1 = 0.1088	1000.49	–
298.15 K, m1 = 0.1136	1000.66	0.9285
298.15 K, m1 = 0.1266	1001.01	–
298.15 K, m1 = 0.1377	1001.33	–
303.15 K, m1 = 0.01287	996.07	–
303.15 K, m1 = 0.0154	996.08	0.8022
303.15 K, m1 = 0.0257	996.56	0.806
303.15 K, m1 = 0.02702	996.51	–
303.15 K, m1 = 0.03133	996.64	0.8073
303.15 K, m1 = 0.03789	996.83	0.8085
303.15 K, m1 = 0.04282	996.99	–
303.15 K, m1 = 0.0455	–	0.8116
303.15 K, m1 = 0.05256	–	0.8134
303.15 K, m1 = 0.05544	997.38	–
303.15 K, m1 = 0.05776	–	0.8148
303.15 K, m1 = 0.06453	–	0.8157
303.15 K, m1 = 0.06825	997.72	–
303.15 K, m1 = 0.06989	997.73	0.8172
303.15 K, m1 = 0.08417	998.28	–
303.15 K, m1 = 0.08956	–	0.8233
303.15 K, m1 = 0.09767	998.74	–
303.15 K, m1 = 0.1088	999.01	–
303.15 K, m1 = 0.1136	999.1	0.8297
303.15 K, m1 = 0.1266	999.56	–
303.15 K, m1 = 0.1377	999.93	–
308.15 K, m1 = 0.01287	994.41	–
308.15 K, m1 = 0.0154	994.45	0.7229
308.15 K, m1 = 0.0257	994.79	0.7255
308.15 K, m1 = 0.02702	994.89	–
308.15 K, m1 = 0.03133	994.96	0.7275
308.15 K, m1 = 0.03789	995.17	0.7285
308.15 K, m1 = 0.04282	995.34	–
308.15 K, m1 = 0.0455	–	0.7309
308.15 K, m1 = 0.05256	–	0.7323
308.15 K, m1 = 0.05544	995.71	–
308.15 K, m1 = 0.05776	–	0.7334
308.15 K, m1 = 0.06453	–	0.7353
308.15 K, m1 = 0.06825	996.07	–
308.15 K, m1 = 0.06989	996.09	0.7362
308.15 K, m1 = 0.08417	996.55	–
308.15 K, m1 = 0.08956	–	0.7406
308.15 K, m1 = 0.09767	996.95	–
308.15 K, m1 = 0.1088	997.25	–
308.15 K, m1 = 0.1136	997.47	0.7457
308.15 K, m1 = 0.1266	997.79	–
308.15 K, m1 = 0.1377	998.16	–
313.15 K, m1 = 0.01287	992.54	–
313.15 K, m1 = 0.0154	992.58	0.6559
313.15 K, m1 = 0.0257	992.89	0.6585
313.15 K, m1 = 0.02702	993.01	–
313.15 K, m1 = 0.03133	993.19	0.66
313.15 K, m1 = 0.03789	993.29	0.6612
313.15 K, m1 = 0.04282	993.45	–
313.15 K, m1 = 0.0455	–	0.6625
313.15 K, m1 = 0.05256	–	0.6639
313.15 K, m1 = 0.05544	993.89	–
313.15 K, m1 = 0.05776	–	0.6643
313.15 K, m1 = 0.06453	–	0.6663
313.15 K, m1 = 0.06825	994.21	–
313.15 K, m1 = 0.06989	994.21	0.6674
313.15 K, m1 = 0.08417	994.66	–
313.15 K, m1 = 0.08956	–	0.6708
313.15 K, m1 = 0.09767	995.03	–
313.15 K, m1 = 0.1088	995.33	–
313.15 K, m1 = 0.1136	995.47	0.6754
313.15 K, m1 = 0.1266	995.88	–
313.15 K, m1 = 0.1377	996.19	–

O [water] + O=C(O)CCCCC(=O)O
m2 = 0
Conditions	viscosity [mPa·s]
293.15 K	1.002
298.15 K	0.8904
303.15 K	0.7975
308.15 K	0.7194
313.15 K	0.653
